Drawing on US20110166123A1, “NOVEL COMPOSITIONS AND METHODS OF USE” (priority 2008, published 2011), this text covers EC50 for 40 compounds.

In the assay the test system is human immunodeficiency virus type 1 (HIV-1). Nature of the assay: microbe, parasite or virus in culture. The format is cell-based. To be noted: Human immunodeficiency virus 1, HeLa, 48 h, HIV-1 luciferase reporter, HeLa cells, 48 hours after infection.
Regarding `CC(C)[C@@H](CO)n1cc(C(=O)O)c(=O)c2cc(Cc3ccc(Cl)c(Cl)c3)ncc21` [Example 5Q], the EC50 is 10 to 100 nM.
The same measure for `CC(C)(C)[C@@H](CO)n1cc(C(=O)O)c(=O)c2cc(NCc3c(F)cc(F)cc3F)c(N3CCOCC3)nc21` [Example 27E, (S)-1-(1-hydroxy-3,3-dimethylbutan-2-yl)-7-morpholino-4-oxo-6-(2,4,6-trifluorobenzylamino)-1,4-dihydro-1,8-naphthyridine-3-carboxylic acid]: 10 to 100 nM.
With `COc1nc2c(cc1NCc1cc(F)ccc1F)c(=O)c(C(=O)O)cn2[C@H](CO)C(C)C` [Example 20CC, (S)-6-(2,5-difluorobenzylamino)-1-(1-hydroxy-3-methylbutan-2-yl)-7-methoxy-4-oxo-1,4-dihydro-1,8-naphthyridine-3-carboxylic acid], the EC50 was over 100 nM.
Next, `CC(C)(C)[C@@H](CO)n1cc(C(=O)O)c(=O)c2cc(Cc3cccc(Cl)c3F)c(OCCO)nc21` [Example 2E]: under 10 nM; `CCC(C)[C@@H](CO)n1cc(C(=O)O)c(=O)c2cc(Cc3cccc(Cl)c3F)c(OC)nc21` (stereo partly shown) [Example 1G]: under 10 nM.
Next, `COCCCOc1nc2c(cc1Cc1cccc(Cl)c1F)c(=O)c(C(=O)O)cn2[C@H](CO)C(C)(C)C` [Example 2I]: 10 to 100 nM; `O=C(O)c1cn(CCO)c2ncc(Cc3cccc(Cl)c3Cl)cc2c1=O` [Example 4E]: over 100 nM.
Take `COc1cc2c(cc1NCc1ccc(F)cc1)c(=O)c(C(=O)O)cn2[C@H](CO)C(C)C` [Example 21A, (S)-6-(4-Fluorobenzylamino)-1-(1-hydroxy-3-methylbutan-2-yl)-7-methoxy-4-oxo-1,4-dihydroquinoline-3-carboxylic acid]: the EC50 is under 10 nM.
`COc1nc2c(cc1Cc1cccc(Cl)c1F)c(=O)c(C(=O)O)cn2[C@H](CO)C(C)(C)C` [Example 1H] registered a 50% effective concentration (EC50) of under 10 nM.
Next, `COc1cc2c(cc1NCc1ccc(F)cc1F)c(=O)c(C(=O)O)cn2[C@H](CO)C(C)C` [Example 21D, (S)-6-(2,4-difluorobenzylamino)-1-(1-hydroxy-3-methylbutan-2-yl)-7-methxoy-4-oxo-1,4-dihydroquinoline-carboxylic acid]: 10 to 100 nM.
The same measure for `CC(C)[C@@H](CO)n1cc(C(=O)O)c(=O)c2cc(NCc3c(F)cc(F)cc3F)ccc21` [Example 22C, (S)-1-(1-hydroxy-3-methylbutan-2-yl)-4-oxo-6-(2,4,6-trifluorobenzylamino)-1,4-dihydroquinoline-3-carboxylic acid]: 10 to 100 nM; for `COc1nc2c(cc1NCc1ccccc1C(F)(F)F)c(=O)c(C(=O)O)cn2[C@H](CO)C(C)C` [Example 20W, (S)-1-(1-hydroxy-3-methylbutan-2-yl)-7-methoxy-4-oxo-6-(2-(trifluoromethyl)benzylamino)-1,4-dihydro-1,8-naphthyridine-3-carboxylic acid]: over 100 nM.
Next, `COc1nc2c(cc1Nc1ccc(Cl)c(F)c1)c(=O)c(C(=O)O)cn2[C@H](CO)C(C)C` [Example 20PP, (S)-6-(4-chloro-3-fluorophenylamino)-1-(1-hydroxy-3-methylbutan-2-yl)-7-methoxy-4-oxo-1,4-dihydro-1,8-naphthyridine-3-carboxylic acid]: over 100 nM; `O=C(O)c1cn(CCO)c2ncc(Cc3cccc(Cl)c3F)cc2c1=O` [Example 4D]: over 100 nM.
The compound `COc1nc2c(cc1CNc1ccc(F)cc1F)c(=O)c(C(=O)O)cn2[C@H](CO)C(C)C` [Example 12B] returned an EC50 of over 100 nM.
Next, `COc1nc2c(cc1N[C@@H](C)c1ccc(F)cc1)c(=O)c(C(=O)O)cn2[C@H](CO)C(C)C` [Example 20KK, 6-((S)-1-(4-fluorophenyl)ethylamino)-1-((S)-1-hydroxy-3-methylbutan-2-yl)-7-methoxy-4-oxo-1,4-dihydro-1,8-naphthyridine-3-carboxylic acid]: over 100 nM; `CC(C)(C)[C@@H](CO)n1cc(C(=O)O)c(=O)c2cc(Cc3cccc(Cl)c3F)c(OCCN3CCOCC3)nc21` [Example 2M]: 10 to 100 nM; `CCCC[C@@H](CO)n1cc(C(=O)O)c(=O)c2cc(Cc3cccc(Cl)c3F)ncc21` [Example 5J]: over 100 nM.
On to `COc1nc2c(cc1CCc1ccc(F)cc1F)c(=O)c(C(=O)O)cn2[C@H](CO)C(C)C` [Example 19, (S)-6-(2,4-difluorophenethyl)-1-(1-hydroxy-3-methylbutan-2-yl)-7-methoxy-4-oxo-1,4-dihydro-1,8-naphthyridine-3-carboxylic acid], for which the EC50 was over 100 nM.
`COc1nc2c(cc1Cc1cccc(Cl)c1F)c(=O)c(C(=O)O)cn2[C@H]1CCCC[C@@H]1O` [Example 1P]: the EC50 is over 100 nM.
Next, `CC(C)[C@@H](CO)n1cc(C(=O)O)c(=O)c2cc(OCc3ccc(F)cc3)ccc21` [Example 23A, (S)-6-(4-fluorobenzyloxy)-1-(1-hydroxy-3-methylbutan-2-yl)-4-oxo-1,4-dihydroquinoline-3-carboxylic acid]: over 100 nM; `COc1cc2c(cc1OCc1cc(Cl)ccc1F)c(=O)c(C(=O)O)cn2[C@H](CO)C(C)(C)C` [Example 29D, (S)-6-(5-chloro-2-fluorobenzyloxy)-1-(1-hydroxy-3,3-dimethylbutan-2-yl)-7-methoxy-4-oxo-1,4-dihydroquinoline-3-carboxylic acid]: over 100 nM; `CC(C)(C)[C@@H](CO)n1cc(C(=O)O)c(=O)c2cc(Cc3cccc(Cl)c3F)c(OCCN3CCCC3)nc21` [Example 2O]: 10 to 100 nM.
The same measure for `CC(C)(C)[C@@H](CO)n1cc(C(=O)O)c(=O)c2cc(OCc3ccc(F)cc3F)ccc21` [Example 23B, (S)-6-(2,4-difluorobenzyloxy)-1-(1-hydroxy-3,3-dimethylbutan-2-yl)-4-oxo-1,4-dihydroquinoline-3-carboxylic acid]: over 100 nM; for `C[C@H](CO)n1cc(C(=O)O)c(=O)c2cc(Cc3cccc(Cl)c3F)ncc21` [Example 5K]: over 100 nM; for `COc1nc2c(cc1-c1cccc3ccccc13)c(=O)c(C(=O)O)cn2[C@H](CO)C(C)C` [Example 17I]: over 100 nM.
The same measure for `CC(C)(C)[C@@H](CO)n1cc(C(=O)O)c(=O)c2cc(Cc3cccc(Cl)c3F)c(N3CCN(CCO)CC3)nc21` [Example 2Z]: 10 to 100 nM; for `CC(C)[C@@H](CO)n1cc(C(=O)O)c(=O)c2nc(Cc3cccc(Cl)c3F)c(O)nc21` [Example 11A, (S)-2-(3-chloro-2-fluorobenzyl)-3-hydroxy-5-(1-hydroxy-3-methylbutan-2-yl)-8-oxo-5,8-dihydropyrido[2,3-b]pyrazine-7-carboxylic acid]: over 100 nM.
`CC(C)[C@@H](CO)n1cc(C(=O)O)c(=O)c2cc(Cc3cccc(Cl)c3)ncc21` [Example 5C, 6-(3-Chloro-benzyl)-1-((S)-1-hydroxymethyl-2-methyl-propyl)-4-oxo-1,4-dihydro-[1,7]naphthyridine-3-carboxylic acid]: the EC50 was over 100 nM.
With `CCOc1nc2c(cc1NCc1ccc(F)cc1)c(=O)c(C(=O)O)cn2[C@H](CO)C(C)C` [Example 27A, (S)-7-Ethoxy-6-(4-fluorobenzylamino)-1-(1-hydroxy-3-methylbutan-2-yl)-4-oxo-1,4-dihydro-1,8-naphthyridine-3-carboxylic acid], the half-maximal effective concentration (EC50) is over 100 nM.
The same measure for `COc1nc2c(cc1NCc1ccc(F)c(F)c1F)c(=O)c(C(=O)O)cn2[C@H](CO)C(C)C` [Example 20EE, (S)-1-(1-hydroxy-3-methylbutan-2-yl)-7-methoxy-4-oxo-6-(2,3,4-trifluorobenzylamino)-1,4-dihydro-1,8-naphthyridine-3-carboxylic acid]: over 100 nM; for `CC(C)(C)[C@@H](CO)n1cc(C(=O)O)c(=O)c2cc(OCc3c(F)cc(F)cc3F)ccc21` [Example 23C, (S)-1-(1-hydroxy-3,3-dimethylbutan-2-yl)-4-oxo-6-(2,4,6-trifluorobenzyloxy)-1,4-dihydroquinoline-3-carboxylic acid]: 10 to 100 nM; for `COc1nc2c(cc1Cc1cccc(Cl)c1F)c(=O)c(C(=O)O)cn2[C@@H](C)CO` [Example 1F]: over 100 nM.
Next, `CCC(C)C(CO)n1cc(C(=O)O)c(=O)c2cc(Cc3cccc(Cl)c3F)ncc21` (stereo not shown) [Example 5H]: 10 to 100 nM; `CC(C)(C)[C@@H](CO)n1cc(C(=O)O)c(=O)c2cc(Cc3cccc(Cl)c3F)c(OCCCCO)nc21` [Example 2G]: 10 to 100 nM.
The same measure for `COc1nc2c(cc1NCCc1ccc(F)cc1)c(=O)c(C(=O)O)cn2[C@H](CO)C(C)C` [Example 20T, (S)-6-(4-fluorophenethylamino)-1-(1-hydroxy-3-methylbutan-2-yl)-7-methoxy-4-oxo-1,4-dihydro-1,8-naphthyridine-3-carboxylic acid]: over 100 nM; for `CC(C)[C@@H](CO)n1cc(C(=O)O)c(=O)c2nc(Cc3cccc(Cl)c3F)ccc21` [Example 8A, 6-(3-Chloro-2-fluoro-benzyl)-1-((S)-1-hydroxymethyl-2-methyl-propyl)-4-oxo-1,4-dihydro-[1,5]naphthyridine-3-carboxylic acid]: over 100 nM; for `CC(C)[C@@H](CO)n1cc(C(=O)O)c(=O)c2cc(Cc3cccc(Cl)c3F)nnc21` [Example 6, 3-(3-chloro-2-fluorobenzyl)-8-(1-hydroxy-3-methylbutan-2-yl)-5-oxo-5,8-dihydropyrido[2,3-c]pyridazine-6-carboxylic acid]: over 100 nM.
Compound `COc1nc(Cc2cccc(Cl)c2F)cc2c(=O)c(C(=O)O)cn([C@H](CO)C(C)C)c12` [Example 5D, 6-(3-Chloro-2-fluoro-benzyl)-1-((S)-1-hydroxymethyl-2-methyl-propyl)-8-methoxy-4-oxo-1,4-dihydro-1,7-naphthyridine-3-carboxylic acid] showed a concentration for a half-maximal effect (EC50) of over 100 nM.
Next, `COc1nc2c(cc1NC1CCCc3ccccc31)c(=O)c(C(=O)O)cn2[C@H](CO)C(C)C` (stereo partly drawn) [Example 20JJ, 1-((S)-1-hydroxy-3-methylbutan-2-yl)-7-methoxy-4-oxo-6-(1,2,3,4-tetrahydronaphthalen-1-ylamino)-1,4-dihydro-1,8-naphthyridine-3-carboxylic acid]: over 100 nM.

One may read the EC50 as the midpoint of the concentration-response curve.
